Source: ChEMBL document CHEMBL4823257, “Penitol A and Penicitols E-I: Citrinin Derivatives from Penicillium citrinum and the Structure Revision of Previously Proposed Analogues” (J Nat Prod, 2021)
pIC50: −log10 of the molar value. ≈ marks a conversion by molar mass, not a printed value.

Legend:
[1] = test system: Enterococcus faecalis; assay: Antibacterial activity against Vancomycin resistant Enterococcus faecalis 1010798; type: functional
[2] = test system: Escherichia coli; assay: Antibacterial activity against Escherichia coli ATCC 25922; type: functional
[3] = test system: Bacillus subtilis; assay: Antibacterial activity against Bacillus subtilis ATCC 6051; type: functional
[4] = test system: HL-60; assay: Cytotoxicity against human HL-60 cells by MTT assay; type: functional, cell-based
[5] = test system: K562; assay: Cytotoxicity against human K562 cells by MTT assay; type: functional, cell-based
[6] = test system: Pseudomonas aeruginosa; assay: Antibacterial activity against Pseudomonas aeruginosa 14; type: functional
[7] = test system: MCF7; assay: Cytotoxicity against human MCF7 cells by SRB assay; type: functional, cell-based
[8] = test system: MDA-MB-231; assay: Cytotoxicity against human MDA-MB-231 cells by SRB assay; type: functional, cell-based
[9] = test system: Bel-7402; assay: Cytotoxicity against human Bel-7402 cells by SRB assay; type: functional, cell-based
[10] = test system: L02; assay: Cytotoxicity against human L02 cells by SRB assay; type: functional, cell-based
[11] = test system: HCT-116; assay: Cytotoxicity against human HCT-116 cells by SRB assay; type: functional, cell-based
[12] = test system: A549; assay: Cytotoxicity against human A549 cells by SRB assay; type: functional, cell-based
[13] = test system: Staphylococcus aureus; assay: Antibacterial activity against Staphylococcus aureus ATCC 29213; type: functional
[14] = test system: Klebsiella pneumoniae; assay: Antibacterial activity against Klebsiella pneumoniae WNX-1; type: functional

Compound	MIC [1] [µg/mL]	MIC [2] [µg/mL]	MIC [3] [µg/mL]	pIC50 [4]	pIC50 [5]	MIC [6] [µg/mL]	pIC50 [7]	pIC50 [8]	pIC50 [9]	pIC50 [10]	pIC50 [11]	pIC50 [12]	MIC [13] [µg/mL]	MIC [14] [µg/mL]
CO[C@@]12CCCC[C@H]1[C@@H]1O[C@H](C)[C@@H](C)c3c(C)c(O)cc(c31)O2	32 (≈ 100 µM)	> 64	32 (≈ 100 µM)	< 4.52	4.59	> 64	< 4.52	< 4.52	< 4.52	< 4.52	< 4.52	< 4.52	64 (≈ 201 µM)	> 64
C/C=C/[C@@H]1C=C[C@@H]2C[C@H](C)CC[C@H]2[C@]1(C)/C(O)=C1/C(=O)[C@H](CO)N(C)C1=O	2 (≈ 5.35 µM)	–	1 (≈ 2.68 µM)	–	–	–	–	–	–	–	–	–	2 (≈ 5.35 µM)	–
Cc1c(O)cc2c3c1[C@H](C)[C@@H](C)O[C@H]3[C@H]1CCCC[C@@]1(O)O2	> 64	> 64	> 64	–	< 4.52	> 64	–	< 4.52	–	< 4.52	–	–	> 64	> 64
COLISTIN	–	0.5	–	–	–	0.3	–	–	–	–	–	–	–	0.5
COc1cccc2c1C(=O)c1c(O)c3c(c(O)c1C2=O)C[C@@](O)(C(=O)CO)C[C@@H]3O[C@H]1C[C@H](N)[C@H](O)[C@H](C)O1 [DOXORUBICIN]	–	–	–	> 6.00	> 6.00	–	> 6.00	> 6.00	> 6.00	> 6.00	> 6.00	> 6.00	–	–
Cc1c(O)cc2c3c1[C@H](C)[C@@H](C)O[C@@H]3[C@H]1CCCC[C@]1(O)O2	> 64	> 64	> 64	< 4.52	< 4.52	> 64	< 4.52	< 4.52	< 4.52	< 4.52	< 4.52	< 4.52	> 64	> 64
Cc1c(O)cc2c3c1[C@H](C)[C@@H](C)O[C@@H]3[C@@H]1CCCC[C@]1(O)O2	> 64	> 64	> 64	< 4.52	< 4.52	> 64	< 4.52	< 4.52	< 4.52	< 4.52	< 4.52	< 4.52	> 64	> 64
Cc1c(O)cc2c3c1[C@H](C)[C@@H](C)O[C@H]3[C@@H]1CCCC[C@@]1(O)O2	> 64	> 64	> 64	< 4.52	< 4.52	> 64	< 4.52	< 4.52	< 4.52	< 4.52	< 4.52	< 4.52	> 64	> 64
Cc1c(O)cc(O)c2c1[C@H](C)[C@@H](C)OC21CCCCC1	32 (≈ 116 µM)	> 64	32 (≈ 116 µM)	4.70	5.06	> 64	4.82	4.59	4.92	< 4.52	4.62	4.55	16 (≈ 57.9 µM)	> 64
CO[C@]12CCCC[C@@H]1[C@H]1O[C@H](C)[C@@H](C)c3c(C)c(O)cc(c31)O2	> 64	> 64	> 64	< 4.52	< 4.52	> 64	< 4.52	< 4.52	4.77	< 4.52	< 4.52	4.72	> 64	> 64
